US10172832B2, “Amide derivatives of N-urea substituted amino acids as formyl peptide receptor like-1 (FPRL-1) receptor modulators” (Allergan, Inc., priority 2011, dated 2019)

Target: T1, FPRL-1 (Homo sapiens, UniProt P25090)
T1 construct: expressed in transfected cells
T1 sequence (P25090 1-351): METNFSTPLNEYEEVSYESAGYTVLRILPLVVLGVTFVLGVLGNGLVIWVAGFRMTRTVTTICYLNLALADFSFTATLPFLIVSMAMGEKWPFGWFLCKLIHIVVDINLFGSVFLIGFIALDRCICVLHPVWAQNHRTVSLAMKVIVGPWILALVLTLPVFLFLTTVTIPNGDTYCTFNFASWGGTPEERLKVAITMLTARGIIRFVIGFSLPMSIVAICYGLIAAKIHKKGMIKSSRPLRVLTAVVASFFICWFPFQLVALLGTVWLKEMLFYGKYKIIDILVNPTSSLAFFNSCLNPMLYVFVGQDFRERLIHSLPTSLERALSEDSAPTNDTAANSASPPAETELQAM
Assay: compound-induced calcium activity on FLIPR Tetra in CHO-Gα16 cells stably expressing FPRL1
Type: cell-based
Conditions: for FPRL-1 Ga16-CHO (Rel. eff.): relative efficacy; for EC50: tested 0.61 to 10,000 nM, read-out: FPRL-1 Ga16-CHO EC50
Method: CHO-Gα16 cells stably expressing FPRL1 were cultured in (F12, 10% FBS, 1% PSA, 400 μg/ml geneticin and 50 μg/ml hygromycin) and HEK-Gqi5 cells stable expressing FPR1 were cultured in (DMEM high glucose, 10% FBS, 1% PSA, 400 μg/ml geneticin and 50 μg/ml hygromycin). In general, the day before the experiment, 18,000 cells/well were plated in a 384-well clear bottom poly-d-lysine coated plate. The following day the screening compound-induced calcium activity was assayed on the FLIPR^Tetra. The drug plates were prepared in 384-well microplates using the EP3 and the MultiPROBE robotic liquid handling systems. Compounds were tested at concentrations ranging from 0.61 to 10,000 nM. Results are expressed as EC50 (nM) and efficacy values.

SMILES | FPRL-1 Ga16-CHO (Rel. eff.) | EC50 [µM]
CC(C)C[C@H](NC(=O)Nc1ccc(Br)cc1)C(=O)NCC(=O)N(C)C [Compound 61, (2S)-2-{[(4-bromophenyl)carbamoyl]amino}-N-[2-(dimethylamino)-2-oxoethyl]-4-methylpentanamide] | (0.90) | 0.0014
CC(C)C[C@H](NC(=O)Nc1ccc(Br)cc1F)C(=O)NCCO [Compound 36, (2S)-2-{[(4-bromo-2-fluorophenyl)carbamoyl]amino}-N-(2-hydroxyethyl)-4-methylpentanamide] | (1.05) | 0.077
CCC[C@H](NC(=O)Nc1ccc(Br)cc1)C(=O)NCC(=O)OC(C)C [Compound 24, isopropyl {[(2S)-2-{[(4-bromophenyl)carbamoyl]amino}-pentanoyl]amino}acetate] | (1.04) | 0.014
CCC[C@H](NC(=O)Nc1ccc(Br)cc1)C(=O)NCC(=O)O [Compound 5, {[(2S)-2-{[(4-bromophenyl)carbamoyl]amino}pentanoyl]amino}acetic acid] | (0.91) | 0.0032
CC(C)C[C@H](NC(=O)Nc1ccc(Br)cc1)C(=O)NCC(=O)OC(C)(C)C [Compound 25, tert-butyl {[(2S)-2-{[(4-bromophenyl)carbamoyl]amino}-4-methylpentanoyl]amino}acetate] | (0.85) | 0.14
CC(C)(NC(=O)Nc1ccc(Br)cc1)C(=O)NCC(=O)O [Compound 60, {[2-{[(4-bromophenyl)carbamoyl]amino}-2-methylpropanoyl]amino}acetic acid] | (0.99) | 0.48
CC(C)C[C@H](NC(=O)Nc1ccc(Br)cc1)C(=O)N[C@@H](C)C(N)=O [Compound 45, (2S)-N-[(1S)-2-amino-1-methyl-2-oxoethyl]-2-{[(4-bromophenyl)carbamoyl]amino}-4-methylpentanamide] | (0.96) | 0.024
O=C(O)CNC(=O)C(Cc1c[nH]c2ccccc12)NC(=O)Nc1ccc(Br)cc1 (stereo not drawn) [{[2-{[(4-bromophenyl)carbamoyl]amino}-3-(1H-indol-3-yl)propanoyl]amino}acetic acid] | (0.97) | 0.00073
CCC[C@H](NC(=O)Nc1ccc(Br)cc1F)C(=O)NCC(C)=O [(2S)-2-{[(4-bromo-2-fluorophenyl)carbamoyl]amino}-N-(2-oxopropyl)pentanamide] | (0.92) | 0.092
CC[C@H](C)[C@H](NC(=O)Nc1ccc(Br)cc1F)C(=O)NCCO [Compound 15, (2S,3S)-2-{[(4-bromo-2-fluorophenyl)carbamoyl]amino}-N-(2-hydroxyethyl)-3-methylpentanamide] | (1.00) | 0.062
CC(C)C[C@H](NC(=O)Nc1ccc(Br)cc1)C(=O)N[C@@H](C)C(=O)OC(C)(C)C [Compound 41] | (0.96) | 0.147
CC[C@H](C)[C@H](NC(=O)Nc1ccc(Br)cc1)C(=O)NCCO [Compound 14, (2S,3S)-2-{[(4-bromophenyl)carbamoyl]amino}-N-(2-hydroxyethyl)-3-methylpentanamide] | (1.00) | 0.024
CC(C)C[C@H](NC(=O)Nc1ccc(SC(F)(F)F)cc1)C(=O)NCC(=O)OC(C)(C)C [Compound 71, tert-butyl ({(2S)-4-methyl-2-[({4-[(trifluoromethyl)sulfanyl]phenyl}carbamoyl)amino]pentanoyl}amino)acetate] | (0.78) | 3.1
CC(C)C[C@H](NC(=O)Nc1ccc(Br)cc1)C(=O)N[C@@H](C)C(=O)O [Compound 43, (2S)-2-{[(2S)-2-{[(4-bromophenyl)carbamoyl]amino}-4-methylpentanoyl]amino}propanoic acid] | (1.05) | 0.011
CC(C)C[C@H](NC(=O)Nc1ccc(Br)cc1)C(=O)NC(CO)CO [Compound 48, (2S)-2-{[(4-bromophenyl)carbamoyl]amino}-N-[2-hydroxy-1-(hydroxymethyl)ethyl]-4-methylpentanamide] | – | 0.0074
CC(C)(C)OC(=O)CNC(=O)[C@H](CCS(C)(=O)=O)NC(=O)Nc1ccc(Br)cc1 [Compound 81, tert-butyl {[(2S)-2-{[(4-bromophenyl)carbamoyl]amino}-4-(methylsulfonyl)butanoyl]amino}acetate] | (0.97) | 1.24
CCC[C@H](NC(=O)Nc1ccc(Br)cc1)C(=O)NCC(=O)OC [Compound 22, methyl {[(2S)-2-{[(4-bromophenyl)carbamoyl]amino}-pentanoyl]amino}acetate] | (0.88) | 0.017
CC[C@H](C)[C@H](NC(=O)Nc1ccc(Br)cc1)C(=O)NCC(N)=O [Compound 28, (2S,3S)—N-(2-amino-2-oxoethyl)-2-{[(4-bromophenyl)carbamoyl]amino}-3-methylpentanamide] | (0.81) | 0.0046

Results, then the molecule that gave them:

FPRL-1 Ga16-CHO (Rel. eff.) | EC50 [µM] | SMILES
(1.06) | 0.013 | CCC[C@H](NC(=O)[C@H](CC(C)C)NC(=O)Nc1ccc(Br)cc1)C(=O)OC(C)(C)C [Compound 49]
(1.03) | 0.305 | CC(C)(C)OC(=O)CNC(=O)[C@H](Cc1c[nH]c2ccccc12)NC(=O)Nc1ccc(Br)cc1 (stereo in doubt) [Compound 90, tert-butyl {[2-{[(4-bromophenyl)carbamoyl]amino}-3-(1H-indol-3-yl)propanoyl]amino}acetate]
(0.87) | 0.105 | CCC[C@H](NC(=O)Nc1ccc(Br)cc1F)C(=O)NCCO [Compound 21, (2S)-2-{[(4-bromo-2-fluorophenyl)carbamoyl]amino}-N-(2-hydroxyethyl) pentanamide]
(0.95) | 0.0055 | CC[C@H](C)[C@H](NC(=O)Nc1ccc(Br)cc1F)C(=O)NCC(=O)O [Compound 3, {[(2S,3S)-2-{[(4-bromo-2-fluorophenyl)carbamoyl]amino}-3-methylpentanoyl]amino}acetic acid]
(0.98) | 0.018 | O=C(O)CCNC(=O)[C@H](Cc1ccccc1)NC(=O)Nc1ccc(Br)cc1 [Compound 2, 3-{[(2S)-2-{[(4-bromophenyl)carbamoyl]amino}-3-phenylpropanoyl]amino}propanoic acid]
(1.00) | 0.01 | CC[C@H](C)[C@H](NC(=O)Nc1ccc(Br)cc1F)C(=O)NCC(N)=O [Compound 29, (2S,3S)-N-(2-amino-2-oxoethyl)-2-{[(4-bromo-2-fluorophenyl)carbamoyl]amino}-3-methylpentanamide]
(1.03) | 0.031 | CCC(CC)(NC(=O)Nc1ccc(Br)cc1)C(=O)NCC(=O)OC(C)(C)C [Compound 57, tert-butyl {[2-{[(4-bromophenyl)carbamoyl]amino}-2-ethylbutanoyl]amino}acetate]
(0.89) | 0.001 | CCC[C@H](NC(=O)[C@H](CC(C)C)NC(=O)Nc1ccc(Br)cc1)C(=O)O [Compound 51, (2S)-2-{[(2S)-2-{[(4-bromophenyl)carbamoyl]amino}-4-methylpentanoyl]amino}pentanoic acid]
(0.45) | 19.3 | CC[C@@H](C)[C@@H](NC(=O)Nc1ccc(Br)cc1)C(=O)NCC(=O)O [Compound 65, {[(2R,3R)-2-{[(4-bromophenyl)carbamoyl]amino}-3-methylpentanoyl]amino}acetic acid]
(0.99) | 0.084 | CC(C)C[C@H](NC(=O)Nc1ccc(Br)cc1)C(=O)N[C@H](C(N)=O)c1ccccc1 [Compound 54, (2S)-N-[(1S)-2-amino-2-oxo-1-phenylethyl]-2-{[(4-bromophenyl)carbamoyl]amino}-4-methylpentanamide]
(1.03) | 0.007 | CSCC[C@H](NC(=O)Nc1ccc(Br)cc1)C(=O)NCC(=O)O [Compound 82, {[(2S)-2-{[(4-bromophenyl)carbamoyl]amino}-4-(methylsulfanyl)butanoyl]amino}acetic acid]
(1.08) | 0.00105 | CC(C)C[C@H](NC(=O)Nc1ccc(Br)cc1)C(=O)NCC(N)=O [Compound 32, (2S)-N-(2-amino-2-oxoethyl)-2-{[(4-bromophenyl)carbamoyl]amino}-4-methylpentanamide]
(0.81) | 2.94 | NC(=O)CC(NC(=O)Nc1ccc(Br)cc1)C(=O)NCC(=O)O (stereo not drawn) [[(4-amino-2-{[(4-bromophenyl)carbamoyl]amino}-4-oxobutanoyl)amino]acetic acid]
(0.91) | 0.118 | CC(C)(C)OC(=O)CNC(=O)[C@H](Cc1ccccc1)NC(=O)Nc1ccc(Br)cc1 [Compound 7, tert-Butyl {[(2S)-2-{[(4-bromophenyl)carbamoyl]amino}-3-phenylpropanoyl]amino}acetate]
